Reference: patent US11008325B2, “Inhibitors of cancer invasion, attachment, and/or metastasis” (VIRGINIA COMMONWEALTH UNIVERSITY, priority 2016, dated 2021)
Entries after “also recorded” stand apart in the source; their conditions may differ. Read-outs that look alike come from different tables or passages of the source.

Columns and labels:
[1] = molecular target: T1, MDA-9 PDZ12 tandem domain (PDZ1) (Homo sapiens, UniProt O00560); assay: NMR [15N,1H] HSQC chemical shift change and titration binding
T1 construct: the MDA-9/Syntenin construct used for the screen contains both PDZ domains; made in house
T1 sequence (O00560 110-274): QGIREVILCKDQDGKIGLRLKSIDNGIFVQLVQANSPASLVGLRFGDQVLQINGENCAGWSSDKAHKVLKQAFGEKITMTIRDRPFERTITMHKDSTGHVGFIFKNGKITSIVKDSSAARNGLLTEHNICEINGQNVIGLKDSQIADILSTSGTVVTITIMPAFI
Protocol: FIGS. 4A-4E. FIG. 4A. […] FIG. 4B. Superposition of 2D [^15N, ^1H]-HSQC spectra of 50 μM MDA-9 PDZ12 tandem domain in the absence and presence of 350 μM 113B7. FIG. 4C. Binding curve and representative spectra for the titration of 113B7 against MDA-9 PDZ12 tandem domain. Top: Zoom of box region in FIG. 4B after titrating 113B7 into Mda9 PDZ, tandem domain. […] Bottom: Titration curve of 113B7 for residue A147. […] FIG. 4D. […] FIG. 4E. Docked structure of 113B7 in complex with MDA-9 PDZ tandem domain (PDB: 1W9E). The pose was obtained with GOLD. Two PDZ domains of MDA-9 are labeled.
NMR based screening of an house assembled fragment library of about 5,000 compounds using [^15N,^1H] […] The proposed docked structure of PDZ1i in the PDZ1 domain and interdomain of MDA-9/Syntenin is shown in FIGS. 4A-4E and FIG. 5, while the chemical structure of PDZ1i is also shown in FIGS. 4A-4E and FIG. 5.
In all binding assays, the MDA-9/Syntenin construct used for the screen contains both PDZ domains. Constructs uniformly labeled with ^15N and ^13C or ^13C-Met selectively labeled are used for binding, mapping and structural studies. These same proteins are used for ITC binding studies.

[2] = tested on: Im-PHFA cells overexpressing MDA-9/Syntenin; assay: trans-well Matrigel invasion assay; type: cell-based, human; conditions: after MDA-9/Syntenin overexpression
Protocol: (§1) FIGS. 7A-7B. FIG. 7A. Im-PHFA, primary immortal human fetal astrocyte cells were infected with an MDA-9/Syntenin expression plasmid carrying adenovirus. 48 hrs post-infection both the control and MDA-9/Syntenin overexpressing cells were treated with DMSO or PDZ1i followed by seeding in a trans-well Matrigel invasion assay and stained after 24 hrs. FIG. 7B. T98G and U87 were treated with DMSO or PDZ1i and seeding in a trans-well Matrigel invasion assay and stained after 24 hrs. Invasion was quantified from 4 random fields. Data represents fold changes and average±S.D.
(§2) Invasion was measured using 24-well BioCoat cell culture inserts (BD Biosciences, Bedford, Mass.) with an 8-μm-porosity polyethylene terephthalate membrane coated with Matrigel Basement Membrane Matrix (100 μg/cm^2). Briefly, the Matrigel was allowed to rehydrate for 2 h at room temperature by adding warm, serum-free DMEM. The wells of the lower chamber were filled with medium containing 10% fetal bovine serum. […] Cells remaining on the upper surface of the filters were removed by wiping with a cotton swab, and invasion was determined by counting the cells that migrated to the lower side of the filter using at least 5 fields per insert at 100× magnification. […] Data from triplicate experiments were expressed as mean±95% confidence interval (CI).

[3] = tested on: T98G cells; assay: trans-well Matrigel invasion assay; type: cell-based, human; conditions: PDZ1i versus DMSO
Protocol: as §1, §2

[4] = tested on: prostate adenocarcinoma; assay: Hi-myc spontaneous prostate cancer transgenic model; type: in vivo, Hi-myc mice; conditions: 30 mg/kg I.P., 9 times for the first three weeks
Protocol: FIG. 19A-19F. PDZ1i suppresses prostate cancer metastasis and tumor progression. FIG. 19A) Survival data for athymic nude mice in which DMSO or PDZ1i pre-treated ARCaPM cells were injected. FIG. 19B) Survival data for athymic nude mice which were injected with (n=5, each group) ARCaPM-Luc (1×10^6 cells in 100 μl saline) through an intracardiac route. Mice received either vehicle or PDZ1i every alternative day (9 injections during the first […]) and maintained until they needed to be euthanized. FIG. 19C) Survival data for C57BL/6 mice injected through the intracardiac route with RM1-Luc. Vehicle or PDZ1i was administered through intraperitoneal injection every alternate day (total 3 injections during the first week). Survival curves were generated using 6 control vehicle-treated and 5 PDZ1i-treated. Kaplan—Meier survival curves were prepared using Graph Pad software. […] Graphical representation of the average prostate weights from control and treated groups. FIG. 19E and FIG. 19F) Photomicrographs representing the histological changes in prostate sections obtained from 6-month old Hi-Myc mice receiving either vehicle (FIG. 19E) or PDZ1i (FIG. 19F). To evaluate potential therapeutic efficacy of PDZ1i four sets of in vivo experiments were conducted. […]

Cc1cc(NC(=O)c2nc3[nH]c4c(c(=O)n3n2)CCC4)c(C)cc1NC(=O)CCc1nnc(-c2ccccc2)o1 [113B7, N-(2,5-dimethyl-4-(3-(5-phenyl-1,3,4-oxadiazol-2-yl)propanamido)phenyl)-8-oxo-5,6,7,8-tetrahydro-4H-cyclopenta[d][1,2,4]triazolo[1,5-a]pyrimidine-2-carboxamide]
dissociation constant / affinity in words ([1]; NMR titration (and ITC)): low micromolar range; also recorded: micromolar affinity | Kd ([1]; NMR titration following backbone amide of residue 147, read-out: Kd values): 21.4 ± 8.62 µM | Kd ([1]; NMR titration, read-out: upper limit for the dissociation constant of the complex, Kd): < 10 µM | Binding affinity ranking ([1]; chemical shift change (DPPM) of backbone amide of residue 147, 50 μM PDZ12, compound at 1:1 molar ratio): 4 (4 for DPPM 0.06-0.08) | Kd ([1]; estimated by NMR titration in 2D HSQC experiments (Table 4), read-out: Kd): ~10 µM | MDA-9/Syntenin-induced invasion [2]: effective in inhibiting MDA-9/Syntenin-induced invasion | invasion [3]: effectively inhibited invasion | size and weight of prostates [4]: significantly less
